Reference: the supplement of paper PMC10307832

What was measured:
Assay in all cases: relative viability (nuclei count vs DMSO), 5 days (fraction); higher = more cells survive
VX-702 + Tozasertib = compound: NC(=O)c1ccc(N(C(N)=O)c2c(F)cccc2F)nc1-c1ccc(F)cc1F [VX-702] + Cc1cc(Nc2cc(N3CCN(C)CC3)nc(Sc3ccc(NC(=O)C4CC4)cc3)n2)n[nH]1 [Tozasertib] (partner 0.1 µM)
Procedure, shortened: (§1)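 Relative viability divides the nuclei count in treated wells by that in vehicle wells. Lung cancer cell lines were seeded in 1536-well plates, dosed by pin tool the next day, and fixed and stained after 5 days in one step with final 0.05% Triton X-100, 1% formaldehyde and 1 ug/ml Hoechst. Dosing was a single drug or a fixed anchor-drug dose plus five library-drug doses (not always all listed) in √10 steps, and values are medians of duplicate plates imaged at 4×.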

VX-702 + Olaparib = compound: NC(=O)c1ccc(N(C(N)=O)c2c(F)cccc2F)nc1-c1ccc(F)cc1F [VX-702] + O=C(c1cc(Cc2n[nH]c(=O)c3ccccc23)ccc1F)N1CCN(C(=O)C2CC2)CC1 [Olaparib] (partner 8 µM)
Procedure, shortened: as §1

VX-702 + Luminespib = compound: NC(=O)c1ccc(N(C(N)=O)c2c(F)cccc2F)nc1-c1ccc(F)cc1F [VX-702] + CCNC(=O)c1noc(-c2cc(C(C)C)c(O)cc2O)c1-c1ccc(CN2CCOCC2)cc1 [Luminespib] (partner 0.01 µM)
Procedure, shortened: as §1

Dabrafenib + Vorinostat = compound: CC(C)(C)c1nc(-c2cccc(NS(=O)(=O)c3c(F)cccc3F)c2F)c(-c2ccnc(N)n2)s1 [Dabrafenib] + O=C(CCCCCCC(=O)Nc1ccccc1)NO [Vorinostat] (partner 1 µM)
Procedure, shortened: as §1

Cell Line | relative viability (VX-702 + Tozasertib; first compound 0.02 µM) | relative viability (VX-702 + Tozasertib; first compound 0.6325 µM) | relative viability (VX-702 + Tozasertib; first compound 2 µM) | relative viability (VX-702 + Olaparib; first compound 0.02 µM) | relative viability (VX-702 + Olaparib; first compound 0.2 µM) | relative viability (VX-702 + Olaparib; first compound 0.6325 µM) | relative viability (VX-702 + Olaparib; first compound 2 µM) | relative viability (VX-702 + Luminespib; first compound 0.02 µM) | relative viability (VX-702 + Luminespib; first compound 0.6325 µM) | relative viability (VX-702 + Luminespib; first compound 2 µM) | relative viability (Dabrafenib + Vorinostat; first compound 0.009487 µM) | relative viability (Dabrafenib + Vorinostat; first compound 0.03 µM) | relative viability (Dabrafenib + Vorinostat; first compound 0.09487 µM) | relative viability (Dabrafenib + Vorinostat; first compound 0.3 µM) | relative viability (VX-702 + Tozasertib; first compound 0.2 µM) | relative viability (VX-702 + Luminespib; first compound 0.2 µM) | relative viability (Dabrafenib + Vorinostat; first compound 0.003 µM)
NCI-H650 | 0.662 | 0.801 | 0.893 | 0.435 | 0.433 | 0.452 | 0.456 | 0.661 | 0.78 | 0.961 | 0.346 | 0.408 | 0.241 | 0.218 | – | – | –
NCI-H661 | 0.35 | 0.352 | 0.35 | 0.752 | 0.73 | 0.756 | 0.798 | 0.905 | 0.995 | 1.06 | 0.778 | 0.804 | 0.767 | 0.842 | 0.345 | 0.919 | 0.889
NCI-H727 | 0.738 | 0.572 | 0.665 | 0.67 | 0.789 | 0.72 | 0.555 | 0.306 | 0.296 | 0.294 | 1.27 | – | 0.995 | 1.19 | 0.809 | 0.345 | 0.538
NCI-H838 | 0.233 | 0.303 | 0.291 | 0.772 | 0.715 | 0.827 | 0.926 | 0.332 | 0.273 | 0.299 | 0.752 | 0.713 | 0.711 | 0.759 | 0.285 | 0.333 | 0.693
NCI-H1355 | 0.497 | 0.593 | 0.631 | 0.752 | 0.729 | 0.785 | 0.876 | 0.72 | 0.729 | 0.76 | 0.672 | 0.641 | 0.581 | 0.633 | 0.514 | 0.632 | –
NCI-H1395 | 0.686 | 0.75 | 0.966 | 0.447 | 0.46 | 0.502 | 0.448 | 0.634 | 0.892 | 0.712 | 0.699 | 0.719 | 0.662 | 0.667 | 0.767 | 0.592 | –
NCI-H1437 | 0.412 | 0.405 | 0.45 | 0.656 | 0.633 | 0.643 | 0.691 | 1.17 | 1.14 | 1.4 | 0.813 | 0.907 | 0.802 | 0.872 | 0.432 | 1.14 | 0.839
NCI-H1650 | 0.353 | 0.353 | 0.494 | 0.78 | 0.813 | 0.806 | 1.16 | 0.19 | 0.216 | 0.226 | 0.528 | 0.711 | 0.608 | 0.659 | 0.305 | 0.193 | 0.547
NCI-H1651 | 0.728 | 0.624 | 0.829 | 0.178 | 0.174 | 0.183 | 0.151 | 0.979 | 0.921 | 1.08 | 0.533 | 0.573 | 0.419 | 0.544 | 0.753 | 0.891 | 0.567
NCI-H1666 | 0.593 | 0.586 | 0.583 | 0.804 | 0.754 | 0.826 | 0.733 | 0.954 | 1.07 | 1.01 | 0.937 | 1.19 | 0.972 | 1.15 | – | – | 1.05
NCI-H1734 | 0.277 | 0.236 | 0.222 | 0.637 | 0.547 | 0.51 | 0.523 | 0.225 | 0.173 | 0.203 | 0.85 | 0.627 | 0.708 | 0.759 | 0.248 | 0.228 | –
NCI-H1755 | 0.599 | 0.597 | 0.653 | 0.911 | 0.897 | 0.799 | 0.876 | 0.432 | 0.315 | 0.476 | 0.726 | 0.558 | 0.771 | 0.728 | 0.592 | 0.498 | 0.849
NCI-H1793 | 0.344 | 0.248 | 0.322 | 0.939 | – | 0.858 | 1.01 | 0.165 | 0.213 | 0.192 | 1.12 | – | 0.877 | 0.873 | 0.309 | 0.217 | –
NCI-H1915 | 0.411 | 0.42 | 0.46 | 0.28 | 0.257 | 0.238 | 0.241 | 0.84 | 0.765 | 0.916 | 0.576 | 0.414 | 0.219 | 0.206 | 0.43 | 0.739 | 0.544
NCI-H1944 | 0.252 | 0.252 | 0.253 | 0.413 | 0.435 | 0.432 | 0.403 | 0.73 | 0.771 | 0.718 | 0.529 | 0.508 | 0.659 | 0.483 | 0.245 | 0.713 | 0.445
NCI-H1975 | 0.792 | 0.713 | 0.934 | 0.792 | 0.746 | 0.809 | 1.1 | 0.198 | 0.233 | 0.246 | 0.742 | 0.741 | 0.705 | 0.663 | 0.724 | 0.275 | 0.636
NCI-H1993 | 0.525 | 0.623 | 0.806 | 0.5 | 1.06 | 1.06 | 1.05 | 0.645 | 0.777 | 0.818 | 1.35 | 0.735 | 0.631 | 1.09 | 0.591 | 0.741 | 0.753
NCI-H2009 | 0.765 | 0.728 | 0.988 | 0.751 | 0.705 | 0.739 | 0.842 | 1.13 | 1.19 | 1.3 | 0.64 | 0.673 | 0.414 | 0.574 | 0.729 | 1.07 | 0.651
